Blank lines part the entries; values can stand above or below the compound they belong to.
What was measured:
[1] = target: T1, NRP1-b1 (Homo sapiens, UniProt O14786); experiment: SPR equilibrium binding assay (Biacore 4000), immobilised NRP1-b1; conditions: equilibrium (steady-state) binding, 25 °C, average ± SD of high and low density surfaces
T1 construct: His6 (TEV protease-cleavable) (N); made in house; host or cells: Escherichia coli Rosetta Gami 2 (DE3) pLysS
T1 sequence (O14786 273-427): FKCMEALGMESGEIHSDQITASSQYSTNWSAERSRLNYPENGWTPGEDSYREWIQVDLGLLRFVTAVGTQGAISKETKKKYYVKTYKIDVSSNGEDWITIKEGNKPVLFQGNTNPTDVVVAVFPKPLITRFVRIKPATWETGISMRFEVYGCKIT
Experimental: All the compounds were evaluated using an SPR binding assay (Biacore) where recombinant NRP1-b1b2 protein was immobilized on a dextran coated chip.[23] Selected compounds were then evaluated in competitive binding assay systems using biotinylated VEGF. […] This encouraging result prompted us to conduct a more focused structure–activity study around the 10a structure.
Surface plasmon resonance experiments were performed using a Biacore 4000 instrument at 25 °C. Sensor chips, buffer stock solutions, and immobilization reagents were from GE Healthcare. Recombinant human NRP1-b1 was as above. Other reagents were obtained from Sigma. Immobilization: PBS (containing 0.05% surfactant P20) was used as the running buffer. The four flow cells were treated in the same way to optimize throughput. In summary, using a CM5 chip spots 1 and 2 were activated with the coupling reagents EDC and NHS for 10 min. NRP1-b1 at a concentration of 20 μg/mL in 10 mM sodium acetate pH 5 was injected onto the surface for 10 and 5 min in spots 1 and 2, respectively, to generate surfaces with high and low density. The immobilization levels ranged from 2302 to 1823 RU on spot 1 and from 948 to 1112 RU in spot 2. The unmodified spot 3 was used as a reference. […] Dose–responses were obtained using a 2-fold sample dilution from 16 μM to 31 nM, using an injection time of 60 s. Surface regeneration between injections was not necessary, but a wash step with 1 M NaCl was included after injection of the highest concentration sample for each compound. Data processing: Binding curves were corrected for variations in DMSO concentration and normalized by molecular weight. Binding results to high and low-density surfaces were processed independently and the average ± SD is presented. KDs reported are derived from steady-state binding responses and therefore correspond to the equilibrium binding affinity of the compounds.

[2] = IV pharmacokinetics in mice; format: in vivo; conditions: for half-life: 2 mg/kg
Experimental: To test compound drug-like properties, selected compounds with low IC50 were further tested for pharmacokinetics (PK) profile. First, 6–8 week-old BABL/c female mice were used, then 2 mg/kg of compounds was formulated in 7.5% DMSO and 92.5% solution and intravenously dosed from the tail vein as a bolus. Blood samples were collected by cardiac puncture at 5, 15, 30, 60, 180, and 240 min post dosing. Plasma samples were prepared by centrifugation at 7000 rpm for 5 min, and supernatants were collected, immediately snap-frozen on dry ice, and stored at −20C. Samples were analyzed by liquid chromatography–tandem mass spectrometry using electrospray ionization and data was analyzed by WinNonlin software.

[3] = test system: HUVEC cells; parameters: method as in PMID 20151671; conditions: 100 μM in combination with VEGF-A; cited from earlier work
[4] = test system: NRP1; parameters: method as in PMID 20151671; conditions: read-out: IC50, inhibition of bt-VEGF-A binding to NRP1; cited from earlier work
[5] = target: T2, DU145/cells.Ad.NRP1 (Homo sapiens, UniProt O14786); experiment: Cell-based competition binding with bt-VEGF in DU145 cells infected with adenovirus expressing WT NRP1; conditions: HS value in brackets beside IC50
T2 construct: expressed in transfected cells; host or cells: DU145 prostate cancer cells (ATCC) infected with adenovirus

[6] = test system: HUVEC cells; experiment: Transwell migration (chemotaxis) of HUVEC cells toward VEGF-A; format: cell-based, human; conditions: 30 μM, no VEGF-A
[7] = test system: HUVEC cells; experiment: Wound healing scratch assay; format: cell-based, human; conditions: 30 μM + VEGF-A 25 ng/mL, 1% EGM
[8] = test system: A375P (malignant melanoma) cells; experiment: 3D spheroid invasion assay; format: cell-based
[9] = test system: Nrp1+ Tregs; experiment: TGFβ production by Nrp1+ Tregs exposed to glioma conditioned media (ELISA); format: cell-based, mice; conditions: 500 nM pretreatment 2 h, GCM 12 h
[10] = target: T3, NRP2 (Homo sapiens, UniProt O60462); experiment: SPR single-cycle binding to NRP2 (Biacore T200); conditions: 62.5 – 1000 nM, NRP2 His tagged and NRP2-Fc chimera
T3 sequence (O60462 23-802 limits assumed): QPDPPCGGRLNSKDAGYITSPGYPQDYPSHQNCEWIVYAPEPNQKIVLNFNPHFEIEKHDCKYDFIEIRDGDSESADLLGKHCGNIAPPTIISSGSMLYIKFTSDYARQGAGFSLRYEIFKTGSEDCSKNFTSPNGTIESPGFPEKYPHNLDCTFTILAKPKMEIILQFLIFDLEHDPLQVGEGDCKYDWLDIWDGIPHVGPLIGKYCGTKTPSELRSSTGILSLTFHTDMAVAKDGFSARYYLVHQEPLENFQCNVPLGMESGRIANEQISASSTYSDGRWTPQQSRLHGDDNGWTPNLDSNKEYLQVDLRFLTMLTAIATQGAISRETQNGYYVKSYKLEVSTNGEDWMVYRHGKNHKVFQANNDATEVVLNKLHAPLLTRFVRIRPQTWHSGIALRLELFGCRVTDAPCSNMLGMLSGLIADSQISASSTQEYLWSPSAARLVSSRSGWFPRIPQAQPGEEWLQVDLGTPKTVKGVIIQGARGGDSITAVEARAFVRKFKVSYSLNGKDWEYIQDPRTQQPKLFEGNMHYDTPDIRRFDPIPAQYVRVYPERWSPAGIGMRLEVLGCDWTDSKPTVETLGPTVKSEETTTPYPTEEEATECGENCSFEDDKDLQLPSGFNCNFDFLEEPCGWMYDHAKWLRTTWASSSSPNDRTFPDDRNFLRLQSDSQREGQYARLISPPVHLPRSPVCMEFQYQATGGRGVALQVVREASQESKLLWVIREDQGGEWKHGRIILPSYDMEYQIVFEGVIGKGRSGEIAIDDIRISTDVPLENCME

[11] = female, BABL/c (so in the source); BALB/c), mouse, plasma, IV bolus 2 mg/kg

T2 sequence (O14786 22-923): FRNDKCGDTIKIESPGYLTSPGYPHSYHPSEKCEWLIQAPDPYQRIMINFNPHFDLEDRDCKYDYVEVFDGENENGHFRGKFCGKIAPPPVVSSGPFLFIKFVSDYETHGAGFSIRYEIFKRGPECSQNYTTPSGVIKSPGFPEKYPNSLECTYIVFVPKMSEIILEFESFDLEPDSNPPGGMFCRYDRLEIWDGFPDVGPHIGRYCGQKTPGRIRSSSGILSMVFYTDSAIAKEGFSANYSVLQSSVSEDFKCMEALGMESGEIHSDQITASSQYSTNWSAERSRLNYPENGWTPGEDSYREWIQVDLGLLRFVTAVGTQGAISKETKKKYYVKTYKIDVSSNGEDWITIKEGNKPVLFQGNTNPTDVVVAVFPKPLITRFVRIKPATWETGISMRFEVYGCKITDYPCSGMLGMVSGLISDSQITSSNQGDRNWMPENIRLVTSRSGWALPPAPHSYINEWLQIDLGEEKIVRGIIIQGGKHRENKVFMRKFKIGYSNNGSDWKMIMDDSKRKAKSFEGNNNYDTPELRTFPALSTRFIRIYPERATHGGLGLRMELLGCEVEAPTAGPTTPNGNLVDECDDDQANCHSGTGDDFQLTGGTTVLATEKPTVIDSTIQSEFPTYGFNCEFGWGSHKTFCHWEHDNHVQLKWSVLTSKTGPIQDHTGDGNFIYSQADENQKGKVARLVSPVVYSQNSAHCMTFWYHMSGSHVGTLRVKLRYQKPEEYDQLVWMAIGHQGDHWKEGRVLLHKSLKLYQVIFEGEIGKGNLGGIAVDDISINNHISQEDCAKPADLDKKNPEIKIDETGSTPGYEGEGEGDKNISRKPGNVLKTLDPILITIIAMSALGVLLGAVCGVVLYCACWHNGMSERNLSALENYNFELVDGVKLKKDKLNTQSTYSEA

Structure (SMILES): N=C(N)NCCC[C@H](NC(=O)c1sccc1NS(=O)(=O)c1cc(-c2ccccc2CNCc2ncc[nH]2)cc2c1OCC2)C(=O)O [9b, N2-(3-((5-(2-((((1H-Imidazol-2-yl)methyl)amino)methyl)phenyl)-2,3-dihydrobenzofuran)-7-sulfonamido)thiophene-2-carbonyl)-Nω-((2,2,4,6,7-pentamethyl-2,3-dihydrobenzofuran-5-yl)sulfonyl)-L-arginine]
- Kd [1]: 1770 ± 100 nM

Structure (SMILES): N=C(N)NCCC[C@H](NC(=O)c1sccc1NS(=O)(=O)c1cc(-c2ccccc2CNCc2cc[nH]n2)cc2c1OCC2)C(=O)O [9c, N2-(3-((5-(2-((((1H-Pyrazol-3-yl)methyl)amino)methyl)phenyl)-2,3-dihydrobenzofuran)-7-sulfonamido)thiophene-2-carbonyl)-Nω-((2,2,4,6,7-pentamethyl-2,3-dihydrobenzofuran-5-yl)sulfonyl)-L-arginine]
- Kd [1]: 2100 ± 40 nM

Structure (SMILES): N=C(N)NCCC[C@H](NC(=O)c1sccc1NS(=O)(=O)c1cc(-c2ccccc2CNCc2cn[nH]c2)cc2c1OCC2)C(=O)O [9d, N2-(3-((5-(2-((((1H-Pyrazol-4-yl)methyl)amino)methyl)phenyl)-2,3-dihydrobenzofuran)-7-sulfonamido)thiophene-2-carbonyl)-Nω-((2,2,4,6,7-pentamethyl-2,3-dihydrobenzofuran-5-yl)sulfonyl)-L-arginine]
- Kd [1]: 2140 ± 70 nM

Structure (SMILES): N=C(N)NCCC[C@H](NC(=O)c1sccc1NS(=O)(=O)c1cc(-c2ccccc2CNCc2ccccn2)cc2c1OCC2)C(=O)O [9e, Nω-((2,2,4,6,7-Pentamethyl-2,3-dihydrobenzofuran-5-yl)sulfonyl)-N2-(3-((5-(2-(((pyridin-2-ylmethyl)amino)methyl)phenyl)-2,3-dihydrobenzofuran)-7-sulfonamido)thiophene-2-carbonyl)-L-arginine]
- Kd [1]: 680 ± 210 nM

Structure (SMILES): N=C(N)NCCC[C@H](NC(=O)c1sccc1NS(=O)(=O)c1cccc2nsnc12)C(=O)O [EG00229, (S)-2-(3-(benzo[c][1,2,5]thiadiazole-4-sulfonamido)thiophene-2-carboxamido)-5-((diaminomethylene)amino)pentanoic acid]
- reduction of migration (previously reported) [3]: ≈ 34%
- IC50 [4]: 8000 nM

Structure (SMILES): N=C(N)NCCC[C@H](NC(=O)c1sccc1NS(=O)(=O)c1cc(-c2ccc(CN)cc2)cc2c1OCC2)C(=O)O [compound 1, (3-((5-(4-(Aminomethyl)phenyl)-2,3-dihydrobenzofuran)-7-sulfonamido)thiophene-2-carbonyl)-L-arginine]
- DU145/cells.Ad.NRP1, (HS) [5]: 0.9
- half-life ([2]; female, BABL/c, mouse, plasma, IV): 4.29 h
- clearance ([2]; female, BABL/c, mouse, plasma, IV bolus 2 mg/kg): 14 mL/min/kg
- effect on HUVEC migration, compound alone [6]: did not influence the migratory ability of these cells
- effect on VEGF-induced wound closure [7]: can delay the VEGF-induced wound closure
- effect on A375P spheroid invasion induced by VEGF-A ([8]; 30 μM + VEGF-A 25 ng/mL, 7 days): significantly inhibited invasion induced by VEGF-A
- effect on A375P radial invasion, compound alone ([8]; 30 μM, compared to DMSO control): no significant effect on radial invasion
- effect on GCM-induced production of TGFβ [9]: inhibited the GCM-induced production of TGFβ
- binding to NRP2 by SPR [10]: no detectable NRP2 binding

Structure (SMILES): CN(C)Cc1cccc(-c2cc3c(c(S(=O)(=O)Nc4ccsc4C(=O)N[C@@H](CCCNC(=N)N)C(=O)O)c2)OCC3)c1 [compound 13, (3-((5-(3-((Dimethylamino)methyl)phenyl)-2,3-dihydrobenzofuran)-7-sulfonamido)thiophene-2-carbonyl)-L-arginine]
- clearance and AUC compared with 1 ([2]; IV, in words): notably higher clearance and lower AUC than 1

Further lines, results first:

- Kd [1]: 840 ± 160 nM
Structure (SMILES): N=C(N)NCCC[C@H](NC(=O)c1sccc1NS(=O)(=O)c1cc(-c2cccc(CNCc3ncc[nH]3)c2)cc2c1OCC2)C(=O)O [10b, N2-(3-((5-(3-((((1H-Imidazol-2-yl)methyl)amino)methyl)phenyl)-2,3-dihydrobenzofuran)-7-sulfonamido)thiophene-2-carbonyl)-Nω-((2,2,4,6,7-pentamethyl-2,3-dihydrobenzofuran-5-yl)sulfonyl)-L-arginine]

- Kd [1]: 1450 ± 70 nM
Structure (SMILES): N=C(N)NCCC[C@H](NC(=O)c1sccc1NS(=O)(=O)c1cc(-c2cccc(CNCc3cc[nH]n3)c2)cc2c1OCC2)C(=O)O [10c, N2-(3-((5-(3-((((1H-Pyrazol-3-yl)methyl)amino)methyl)phenyl)-2,3-dihydrobenzofuran)-7-sulfonamido)thiophene-2-carbonyl)-Nω-((2,2,4,6,7-pentamethyl-2,3-dihydrobenzofuran-5-yl)sulfonyl)-L-arginine]

- Kd [1]: 1430 ± 110 nM
- t1/2 ([2]; IV bolus 2 mg/kg): 1.20 h
- half-life ([2]; female, BABL/c (so in the source); BALB/c), mouse, plasma, IV): 1.2 h
- AUC(0-inf) [2, 11]: 3140 ng·h/mL
- Cmax [2, 11]: 2620 ng/mL
- Tmax [2, 11]: 4.8 min
- Vd [2, 11]: 1.1 L/kg
- clearance [2, 11]: 18.4 mL/min/kg
Structure (SMILES): N=C(N)NCCC[C@H](NC(=O)c1sccc1NS(=O)(=O)c1cc(-c2cccc(CNCc3cn[nH]c3)c2)cc2c1OCC2)C(=O)O [10d, N2-(3-((5-(3-((((1H-Pyrazol-4-yl)methyl)amino)methyl)phenyl)-2,3-dihydrobenzofuran)-7-sulfonamido)thiophene-2-carbonyl)-Nω-((2,2,4,6,7-pentamethyl-2,3-dihydrobenzofuran-5-yl)sulfonyl)-L-arginine]

- Kd [1]: 410 ± 90 nM
Structure (SMILES): N=C(N)NCCC[C@H](NC(=O)c1sccc1NS(=O)(=O)c1cc(-c2cccc(CNCc3ccccn3)c2)cc2c1OCC2)C(=O)O [10e, Nω-((2,2,4,6,7-Pentamethyl-2,3-dihydrobenzofuran-5-yl)sulfonyl)-N2-(3-((5-(3-(((pyridin-2-ylmethyl)amino)methyl)phenyl)-2,3-dihydrobenzofuran)-7-sulfonamido)thiophene-2-carbonyl)-L-arginine]

From article PMC5957473, “Small Molecule Neuropilin-1 Antagonists Combine Antiangiogenic and Antitumor Activity with Immune Modulation through Reduction of Transforming Growth Factor Beta (TGFβ) Production in Regulatory T-Cells” (Journal of Medicinal Chemistry, 2018)
